In ChEMBL document CHEMBL1938257, “Synthesis of monomeric derivatives to probe memoquin's bivalent interactions” (J Med Chem, 2011):
The source made the active and inactive calls. The calls are words filed in the database; no cut-off is given here.

Assays:
[1] = Neurotoxicity in chicken primary telencephalon neuron expressing APP assessed as reduction in neuronal viability at 25 uM after 24 hrs by MTT assay; parameters: species or system Gallus gallus
Beta-secretase 1 [2] = molecular target: T1, Beta-secretase 1 (Homo sapiens, UniProt P56817); assay: Inhibition of recombinant BACE1 expressed in baculovirus system using M-2420 as substrate preincubated for 1 hr before substrate addition measured after 15 mins by spectrofluorometric analysis
T1 sequence (P56817 whole entry): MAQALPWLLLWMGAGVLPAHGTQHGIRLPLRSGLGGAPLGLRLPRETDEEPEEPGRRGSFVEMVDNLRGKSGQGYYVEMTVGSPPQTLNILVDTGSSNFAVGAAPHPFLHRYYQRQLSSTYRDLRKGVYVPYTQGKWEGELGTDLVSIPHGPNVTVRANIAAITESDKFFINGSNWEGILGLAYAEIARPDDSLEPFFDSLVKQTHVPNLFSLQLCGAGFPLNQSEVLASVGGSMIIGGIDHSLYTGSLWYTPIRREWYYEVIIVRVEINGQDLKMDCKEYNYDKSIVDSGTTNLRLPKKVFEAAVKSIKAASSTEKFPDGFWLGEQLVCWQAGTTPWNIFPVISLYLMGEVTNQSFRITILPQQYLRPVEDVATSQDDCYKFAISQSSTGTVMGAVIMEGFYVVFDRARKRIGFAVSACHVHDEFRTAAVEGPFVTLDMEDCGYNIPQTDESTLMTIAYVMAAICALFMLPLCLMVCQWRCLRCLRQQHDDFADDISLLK

Beta-secretase 1 [3] = molecular target: T1, Beta-secretase 1; assay: Inhibition of recombinant BACE1 expressed in baculovirus system using panvera peptide as substrate at 3 uM after 60 mins by spectrofluorometric analysis
Cholinesterase = Cholinesterase (Homo sapiens, UniProt P06276); assay: Inhibition of human recombinant BuChE using butyrylthiocholine iodide as substrate after 20 mins preincubation by Ellman method
Cholinesterase, sequence (P06276 whole entry): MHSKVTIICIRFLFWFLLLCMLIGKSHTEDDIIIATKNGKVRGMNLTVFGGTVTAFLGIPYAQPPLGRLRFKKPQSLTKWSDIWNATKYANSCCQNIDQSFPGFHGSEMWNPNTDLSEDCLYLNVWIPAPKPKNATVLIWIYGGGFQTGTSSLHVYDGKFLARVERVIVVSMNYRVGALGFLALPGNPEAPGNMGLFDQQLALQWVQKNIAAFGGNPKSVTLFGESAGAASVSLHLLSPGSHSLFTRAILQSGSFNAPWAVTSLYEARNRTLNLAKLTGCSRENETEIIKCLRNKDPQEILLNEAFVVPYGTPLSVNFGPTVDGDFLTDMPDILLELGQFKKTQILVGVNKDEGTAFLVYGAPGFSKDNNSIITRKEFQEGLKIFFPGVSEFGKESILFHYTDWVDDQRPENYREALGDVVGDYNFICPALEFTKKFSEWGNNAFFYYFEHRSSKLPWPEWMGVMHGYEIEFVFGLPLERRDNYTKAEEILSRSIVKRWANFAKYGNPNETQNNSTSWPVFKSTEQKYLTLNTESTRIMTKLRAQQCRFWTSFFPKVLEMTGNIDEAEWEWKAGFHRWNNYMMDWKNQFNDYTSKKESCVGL

[4] = Inhibition of amyloid beta (1 to 42) self-aggregation assessed as fibril formation at 10 uM after 24 hrs by thioflavin T-based fluorometric assay
Acetylcholinesterase [5] = molecular target: T2, Acetylcholinesterase (Homo sapiens, UniProt P22303); assay: Inhibition of human recombinant AChE using acetylthiocholine iodide as substrate after 20 mins preincubation by Ellman method
T2 sequence (P22303 whole entry): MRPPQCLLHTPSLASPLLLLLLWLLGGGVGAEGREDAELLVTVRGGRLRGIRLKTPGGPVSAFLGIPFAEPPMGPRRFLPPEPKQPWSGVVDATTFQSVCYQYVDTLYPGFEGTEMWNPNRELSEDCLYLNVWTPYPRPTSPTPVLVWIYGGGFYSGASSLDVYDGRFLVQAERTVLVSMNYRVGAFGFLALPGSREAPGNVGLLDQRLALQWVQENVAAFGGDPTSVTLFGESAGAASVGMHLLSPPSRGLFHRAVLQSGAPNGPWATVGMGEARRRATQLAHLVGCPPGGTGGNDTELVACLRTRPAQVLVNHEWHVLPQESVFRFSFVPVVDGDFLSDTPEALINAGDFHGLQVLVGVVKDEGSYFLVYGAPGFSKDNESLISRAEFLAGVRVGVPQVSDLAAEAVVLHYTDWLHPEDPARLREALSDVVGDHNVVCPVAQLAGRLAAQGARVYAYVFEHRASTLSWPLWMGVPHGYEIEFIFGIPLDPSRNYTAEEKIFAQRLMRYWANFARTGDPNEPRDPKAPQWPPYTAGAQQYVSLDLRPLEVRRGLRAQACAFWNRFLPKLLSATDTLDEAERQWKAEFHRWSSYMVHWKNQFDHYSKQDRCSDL

[6] = Neurotoxicity in chicken primary telencephalon neuron expressing APP assessed as reduction in neuronal viability at 50 uM after 24 hrs by MTT assay; parameters: species or system Gallus gallus
Acetylcholinesterase [7] = molecular target: T2, Acetylcholinesterase; assay: Inhibition of human recombinant AChE-induced amyloid beta 40 aggregation assessed as fibril formation at 100 uM after 24 hrs by thioflavin T-based fluorometric assay
[8] = Inhibition of gamma-secretase in chicken primary telencephalon neuron cells expressing APP assessed as inhibition of amyloid beta-38 production by electrochemiluminescence assay; conditions: Gallus gallus
[9] = Neurotoxicity in chicken primary telencephalon neuron expressing APP assessed as reduction in neuronal viability at 0.01 to 50 uM after 24 hrs by MTT assay; parameters: species or system Gallus gallus
[10] = Inhibition of gamma-secretase in chicken primary telencephalon neuron cells expressing APP assessed as inhibition of amyloid beta-42 production by electrochemiluminescence assay; conditions: Gallus gallus
Acetylcholinesterase [11] = molecular target: T2, Acetylcholinesterase; assay: Inhibition of human recombinant AChE-induced amyloid beta (1-40) aggregation assessed as fibril formation after 24 hrs by thioflavin T-based fluorometric assay
Beta-secretase 1 [12] = molecular target: T1, Beta-secretase 1; assay: Inhibition of recombinant BACE1 expressed in baculovirus system using panvera peptide as substrate after 60 mins by spectrofluorometric analysis
[13] = Inhibition of gamma-secretase in chicken primary telencephalon neuron cells expressing APP assessed as inhibition of amyloid beta-40 production by electrochemiluminescence assay; conditions: Gallus gallus

CCN(CCCCCCNC1=CC(=O)C(NCCCCCCN(CC)Cc2ccccc2OC)=CC1=O)Cc1ccccc1OC [MEMOQUIN]
Activity [1]: Toxic
IC50 (Beta-secretase 1 [2]): 4.6 µM
inhibition (Beta-secretase 1 [3]): > 80%
IC50 (Cholinesterase): 0.144 µM
inhibition [4]: 66.8%

COc1ccccc1CN1CCC(N2CCC(NC3=CC(=O)c4ccccc4C3=O)CC2)CC1
inhibition (Beta-secretase 1 [3]): inactive
IC50 (Cholinesterase): 3.16 µM
IC50 (Acetylcholinesterase [5]): 17200 nM
inhibition [4]: 21.4%

NCCCCCCNC1=CC(=O)c2ccccc2C1=O
inhibition (Beta-secretase 1 [3]): inactive
IC50 (Cholinesterase): 294 µM
IC50 (Acetylcholinesterase [5]): 64500 nM
inhibition [4]: 13.8%

CCN(CCCCCCNC1=CC(=O)C(OC)=CC1=O)Cc1ccccc1OC
inhibition (Beta-secretase 1 [3]): 32.8%
IC50 (Cholinesterase): 22.8 µM
Activity [6]: Toxic
IC50 (Acetylcholinesterase [5]): 65.3 nM
inhibition [4]: 45.7%

CCN(CCCCCCNC1=CC(=O)c2ncccc2C1=O)Cc1ccccc1OC
inhibition (Acetylcholinesterase [7]): 41.3%
inhibition (Beta-secretase 1 [3]): inactive
IC50 (Cholinesterase): 2.56 µM
IC50 (Acetylcholinesterase [5]): 27.9 nM
inhibition [4]: 15.4%

CCN(CCCCCCNC1=CC(=O)C(C)=C(C)C1=O)Cc1ccccc1OC
inhibition (Acetylcholinesterase [7]): 60.6%
inhibition (Beta-secretase 1 [3]): 12.8%
IC50 (Cholinesterase): 0.314 µM
IC50 (Acetylcholinesterase [5]): 29 nM
inhibition [4]: 30.2%

COc1ccccc1CNCCCCCCNC1=CC(=O)c2ccccc2C1=O
inhibition (Beta-secretase 1 [3]): inactive
IC50 (Cholinesterase): 3.32 µM
IC50 (Acetylcholinesterase [5]): 1850 nM
inhibition [4]: 29.5%

CCN(CCCCCCNC1=CC(=O)c2ccccc2C1=O)Cc1ccccc1OC
IC50 [8]: 19 µM
inhibition (Acetylcholinesterase [7]): 69.1%
IC50 (Beta-secretase 1 [2]): 3 µM
Activity [9]: Non-toxic
inhibition (Beta-secretase 1 [3]): 60.2%
IC50 [10]: 46 µM
IC50 (Acetylcholinesterase [11]): 45 µM
IC50 (Cholinesterase): 1.49 µM
IC50 (Acetylcholinesterase [5]): 9.73 nM
IC50 (Beta-secretase 1 [12]): 2800 nM
IC50 [13]: 21 µM
inhibition [4]: 27.3%

COC1=CC(=O)C(N2CCC(C3CCN(Cc4ccccc4OC)CC3)CC2)=CC1=O
Activity [1]: Toxic
inhibition (Beta-secretase 1 [3]): 32.9%
IC50 (Cholinesterase): 3.58 µM
IC50 (Acetylcholinesterase [5]): 24400 nM
inhibition [4]: 20.5%
